Here are results for 2 compounds from EP4238971A1, “SUBSTITUTED ISOXAZOLINE DERIVATIVES” (BASF SE, priority 2022, dated 2023).

In general, mortality refers to the percentage killed.

Structures are written as SMILES.

Common to all, as to assay type: in vivo
The subject of one data set is Plutella xylostella. The data set can be described thus: Diamond back moth (Plutella xylostella), cabbage leaf disc dip test. As for the experimental part:
B.5. Diamond back moth (Plutella xylostella)
The active compound was dissolved at the desired concentration in a mixture of 1:1 (vol:vol) distilled water: acetone. Surfactant (Kinetic) was added at a rate of 0.01% (vol/vol). The test solution was prepared at the day of use. Cabbage leaf discs (60mm in diameter) were dipped in test solution and air-dried. Treated leaves were placed in petri dishes lined with moistened filter paper and inoculated with ten 3rd instar larvae. Mortality was recorded 72 hours after treatment. Feeding damages were also recorded using a scale of 0-100%.

In the next data set the test system is Dichromothrips corbetti. The data set is described as follows: Orchid thrips (Dichromothrips corbetti), floral-immersion technique. As for the experimental part:
B.6. Orchid thrips (Dichromothrips corbetti)
Dichromothrips corbetti adults used for bioassay were obtained from a colony maintained continuously under laboratory conditions. For testing purposes, the test compound was diluted in a 1:1 mixture of acetone:water (vol:vol), plus Kinetic at a rate of 0.01% v/v.
Thrips potency of each compound was evaluated by using a floral-immersion technique. Each orchid petal was dipped into treatment solution and allowed to dry in Petri dishes. Treated petals were placed into individual re-sealable plastic along with about 20 adult thrips. All test arenas were held under dark condition and a temperature of about 28°C for duration of the assay. The percent mortality was recorded 72 hours after treatment.

In a further data set the test system is Spodoptera eridania. The data set can be described thus: Southern armyworm (Spodoptera eridania), 2nd instar larvae, sprayed lima bean plants. As for the experimental part:
B.7. Southern armyworm (Spodoptera eridania), 2nd instar larvae
The active compounds were formulated by a Tecan liquid handler in 100% cyclohexanone as a 10'000 ppm solution supplied in tubes. The 10'000 ppm solution was serially diluted in 100% cyclohexanone to make interim solutions. These served as stock solutions for which final dilutions were made by the Tecan in 50% acetone:50% water (v/v) into 10 or 20ml glass vials. A nonionic surfactant (Kinetic®) was included in the solution at a volume of 0.01% (v/v). The vials were then inserted into an automated electrostatic sprayer equipped with an atomizing nozzle for application to plants/insects. Lima bean plants (variety Sieva) were grown 2 plants to a pot and selected for treatment at the 1st true leaf stage. Test solutions were sprayed onto the foliage by an automated electrostatic plant sprayer equipped with an atomizing spray nozzle. The plants were dried in the sprayer fume hood and then removed from the sprayer. Each pot was placed into perforated plastic bags with a zip closure. Ten to 11 armyworm larvae were placed into the bag and the bags zipped closed. Test plants were maintained in a growth room at about 25°C and about 20-40% relative humidity for 4 days, avoiding direct exposure to fluorescent light (14:10 light:dark photo-period) to prevent trapping of heat inside the bags. Mortality and reduced feeding were assessed 4 days after treatment, compared to untreated control plants.

The next data set relates to Anthonomus grandis. The data set is described as follows: Boll weevil (Anthonomus grandis) control, insect diet in 96-well microtiter plates. As for the experimental part:
(§1) If not otherwise specified, the test solutions were prepared as follows: The active compound was dissolved at the desired concentration in a mixture of 1:1 (vol:vol) distilled water:acetone. The test solution was prepared at the day of use.
(§2) Test solutions were prepared in general at a concentration of 2500ppm (wt/vol).
B.1. Boll weevil (Anthonomus grandis)
For evaluating control of boll weevil, the test unit consisted of 96-well-microtiter plates containing an insect diet and 5-10 A. grandis eggs.
The compounds were formulated using a solution containing 75% v/v water and 25% v/v DMSO. Different concentrations of formulated compounds were sprayed onto the insect diet at 5µl, using a custom-built micro atomizer, at two replications.
After application, microtiter plates were incubated at about 25 ± 1°C and about 75 ± 5 % relative humidity for 5 days. Egg and larval mortality were then visually assessed.

A further data set relates to Heliothis virescens. The data set is described as follows: Tobacco budworm (Heliothis virescens) control, insect diet in 96-well microtiter plates. The method, then: as §1, §2
B.3. Tobacco budworm (Heliothis virescens)
For evaluating control of Tobacco Budworm, the test unit consisted of 96-well-microtiter plates containing an insect diet and 15-25 H. virescens eggs. The compounds were formulated using a solution containing 75% v/v water and 25% v/v DMSO. Different concentrations of formulated compounds were sprayed onto the insect diet at 10µl, using a custom-built micro atomizer, at two replications. After application, microtiter plates were incubated at about 28 ± 1°C and about 80 ± 5 % relative humidity for 5 days. Egg and larval mortality was then visually assessed.

For the next data set, the system named is Aedes aegypti. The data set can be described thus: whole plant or invertebrate. Conditions: larval mortality visually assessed after 2 days. The method, then:
as §1, §2
B.4. Yellow fever mosquito (Aedes aegypti)
For evaluating control of Yellow Fever Mosquito, the test unit consisted of 96-well-microtiter plates containing 200µl of tap water per well and 5-15 freshly hatched A. aegypti larvae. The active compounds were formulated using a solution containing 75% (v/v) water and 25% (v/v) DMSO. Different concentrations of formulated compounds or mixtures were sprayed onto the insect diet at 2.5µl, using a custom-built micro atomizer, at two replications.
After application, microtiter plates were incubated at 28 ± 1°C, 80 ± 5 % RH for 2 days. Larval mortality was then visually assessed.

A further data set has as its system Bemisia argentifolii. The data set is described as follows: Silverleaf whitefly (Bemisia argentifolii) adults, sprayed cotton plants. As for the experimental part: B.8. Silverleaf whitefly (Bemisia argentifolii) (adults)
The active compounds were formulated by a Tecan liquid handler in 100% cyclohexanone as a 10,000-ppm solution supplied in tubes. The 10,000-ppm solution was serially diluted in 100% cyclohexanone to make interim solutions. These served as stock solutions for which final dilutions were made by the Tecan in 50% acetone:50% water (v/v) into 5 or 10ml glass vials. A nonionic surfactant (Kinetic®) was included in the solution at a volume of 0.01% (v/v). The vials were then inserted into an automated electrostatic sprayer equipped with an atomizing nozzle for application to plants/insects. Cotton plants at the cotyledon stage (one plant per pot) were sprayed by an automated electrostatic plant sprayer equipped with an atomizing spray nozzle. The plants were dried in the sprayer fume hood and then removed from the sprayer. Each pot was placed into a plastic cup and about 10 to 12 whitefly adults (approximately 3-5 days old) were introduced. The insects were collected using an aspirator and a nontoxic Tygon® tubing connected to a barrier pipette tip. The tip, containing the collected insects, was then gently inserted into the soil containing the treated plant, allowing insects to crawl out of the tip to reach the foliage for feeding. Cups were covered with a reusable screened lid. Test plants were maintained in a growth room at about 25°C and about 20-40% relative humidity for 3 days, avoiding direct exposure to fluorescent light (14:10 light:dark photoperiod) to prevent trapping of heat inside the cup. Mortality was assessed 3 days after treatment, compared to untreated control plants.

The subject of another data set is Myzus persicae. The data set is described as follows: Green peach aphid (Myzus persicae), mixed life stages, systemic test via artificial diet under membrane. The method, then: as §1, §2
B.2. Green peach aphid (Myzus persicae) (mixed life stages)
For evaluating control of Green Peach Aphid through systemic means the test unit consisted of 96-well-microtiter plates containing liquid artificial diet under an artificial membrane. The compounds were formulated using a solution containing 75% v/v water and 25% v/v DMSO. Different concentrations of formulated compounds were pipetted into the aphid diet, using a custom-built pipette, at two replications. After application, 5 - 8 adult aphids were placed on the artificial membrane inside the microtiter plate wells. The aphids were then allowed to suck on the treated aphid diet and incubated at about 23 ± 1°C and about 50 ± 5 % relative humidity for 3 days. Aphid mortality and fecundity was then visually assessed.

Setting [1] is: 2500ppm, egg and larval mortality visually assessed after 5 days.

For the compound `Fc1c(Cl)cc(C2(C(F)(F)F)CC(Nc3ccc(Cl)c(-n4cc(C(F)(F)F)cn4)c3)=NO2)cc1Cl` (stereo not shown) [I-14, N-[4-chloro-3-[4-(trifluoromethyl)pyrazol-1-yl]phenyl]-5-(3,5-dichloro-4-fluoro-phenyl)-5-(trifluoromethyl)-4H-isoxazol-3-amine], the mortality at 300 ppm in the data set with Plutella xylostella (Plutella xylostella, foliar, 72 h, read-out: mortality in comparison with untreated controls) was no less than 75%; in the data set with Dichromothrips corbetti (Dichromothrips corbetti, 72 h, read-out: mortality in comparison with untreated controls), no less than 75%; in the data set on Spodoptera eridania (Spodoptera eridania, 96 h, read-out: mortality in comparison with untreated controls), no less than 75%; in the data set with Bemisia argentifolii (Bemisia argentifolii, 72 h, read-out: mortality in comparison with untreated controls), no less than 75%. In addition, the mortality at 2500 ppm was no less than 75% in the data set on Anthonomus grandis (Anthonomus grandis, 120 h, read-out: mortality in comparison with untreated controls); no less than 75% in the data set with Heliothis virescens (Heliothis virescens, 120 h, read-out: mortality in comparison with untreated controls); no less than 75% in the data set with Aedes aegypti (Aedes aegypti, 48 h, read-out: mortality in comparison with untreated controls); no less than 75% in the data set on Myzus persicae (Myzus persicae, 72 h, read-out: mortality in comparison with untreated controls).
Regarding `COCN(C1=NOC(c2cc(Cl)c(F)c(Cl)c2)(C(F)(F)F)C1)c1ccc(Cl)c(-n2cncn2)c1` (stereo not shown) [I-21], the “mortality in comparison with untreated controls” value in the data set on Plutella xylostella (300ppm, 3rd instar larvae, mortality recorded 72 hours after treatment) is on record as “at least 75%”; in the data set with Dichromothrips corbetti (300ppm, adult thrips, mortality recorded 72 hours after treatment) it was “at least 75%”; in the data set on Spodoptera eridania (300ppm, 2nd instar larvae, assessed 4 days after treatment), “at least 75%”; with Anthonomus grandis (setting [1]), “at least 75%”; in the data set on Heliothis virescens (setting [1]), “at least 75%”; in the data set with Aedes aegypti (2500ppm), “at least 75%”. In addition, the “mortality in comparison with untreated controls” value in the data set with Bemisia argentifolii (300 ppm, adults, assessed 3 days after treatment) is reported as “at least 75%”; in the data set with Myzus persicae (2500ppm, aphid mortality visually assessed after 3 days) it was “at least 75%”.
